Active and inactive are the calls of the source. No cut-off for these calls is given here.
What was measured:
Mus musculus [1] = assay: In vivo activity tested against C3H mice bearing panc-03 murine tumor measured as log Kill value was based on tumors that grew at 939 mg/kg (po); type: functional, organism-based; design: dose 939 mg/kg
Mus musculus [2] = assay: In vivo activity tested against C3H mice bearing panc-03 murine tumor measured as body weight loss at 939 mg/kg (po); type: functional
Mus musculus [3] = assay: In vivo activity tested against C3H mice bearing panc-03 murine tumor measured as % treated/control calculated at 939 mg/kg (po); type: functional
Mus musculus [4] = assay: In vivo activity tested against C3H mice bearing colon adenocarcinoma -38(colon-38) tumor measured as % treated/control calculated at 753 mg/kg (po); type: functional
Mus musculus [5] = assay: In vivo activity tested against C3H mice bearing colon adenocarcinoma -38(colon-38) tumor measured as body weight loss at 466 mg/kg (po); type: functional
Mus musculus [6] = assay: In vivo activity tested against C3H mice bearing colon adenocarcinoma -38(colon-38) tumor, measured as cures at 466 mg/kg (po); 3/5 cures; type: functional
Mus musculus [7] = assay: In vivo activity tested against C3H mice bearing colon adenocarcinoma -38(colon-38) tumor measured as body weight loss at 753 mg/kg (po); type: functional
Mus musculus [8] = assay: In vivo activity tested against C3H mice bearing colon adenocarcinoma -38(colon-38) tumor, measured as cures at 753 mg/kg (po); 2/5 cures; type: functional
Mus musculus [9] = assay: In vivo activity tested against C3H mice bearing colon adenocarcinoma -38(colon-38) tumor measured as activity rating at 466 mg/kg (po); type: functional
Mus musculus [10] = assay: In vivo activity tested against C3H mice bearing colon adenocarcinoma -38(colon-38) tumor measured as activity rating at 753 mg/kg (po); type: functional
Mus musculus [11] = assay: In vivo activity tested against C3H mice bearing colon adenocarcinoma -38(colon-38) tumor measured as % treated/control calculated at 466 mg/kg (po); type: functional
Mus musculus [12] = assay: In vivo activity tested against C3H mice bearing colon adenocarcinoma -38(colon-38) tumor measured as log Kill value was based on tumors that grew at 753 mg/kg (po); type: functional, organism-based; design: dose 753 mg/kg
Mus musculus [13] = assay: In vivo activity tested against C3H mice bearing colon adenocarcinoma -38(colon-38) tumor measured as log Kill value was based on tumors that grew at 466 mg/kg (po); type: functional, organism-based; design: dose 466 mg/kg
Mus musculus [14] = assay: In vivo activity tested against C3H mice bearing colon adenocarcinoma -38(colon-38) tumor measured as % treated/control calculated at 1590 mg/kg (po); type: functional
Mus musculus [15] = assay: In vivo activity tested against C3H mice bearing colon adenocarcinoma -38(colon-38) tumor measured as activity rating at 1590 mg/kg (po); type: functional
Mus musculus [16] = assay: In vivo activity tested against C3H mice bearing colon adenocarcinoma -38(colon-38) tumor measured as log Kill value was based on tumors that grew at 1590 mg/kg (po); None; type: functional, organism-based; design: dose 1590 mg/kg
Mus musculus [17] = assay: In vivo activity tested against C3H mice bearing colon adenocarcinoma -38(colon-38) tumor measured as body weight loss at 1590 mg/kg (po); type: functional
Mus musculus [18] = assay: In vivo activity tested against C3H mice bearing panc-03 murine tumor measured as log Kill value was based on tumors that grew at 530 mg/kg (po); type: functional, organism-based; design: dose 530 mg/kg
Mus musculus [19] = assay: In vivo activity tested against C3H mice bearing panc-03 murine tumor measured as body weight loss at 530 mg/kg (po); type: functional
Mus musculus [20] = assay: In vivo activity tested against C3H mice bearing panc-03 murine tumor measured as % treated/control calculated at 530 mg/kg (po); type: functional
Mus musculus [21] = assay: In vivo activity tested against C3H mice bearing panc-03 murine tumor measured as% treated/control calculated at 477 mg/kg (po); type: functional
Mus musculus [22] = assay: In vivo activity tested against C3H mice bearing panc-03 murine tumor measured as body weight loss at 477 mg/kg (po); type: functional
Mus musculus [23] = assay: In vivo activity tested against C3H mice bearing panc-03 murine tumor measured as log Kill value was based on tumors that grew at 477 mg/kg (po); kill value was NIL; type: functional, organism-based; design: dose 477 mg/kg
Mus musculus [24] = assay: In vivo activity tested against C3H mice bearing panc-03 murine tumor; type: functional
Mus musculus [25] = assay: In vivo activity tested against C3H mice bearing panc-03 murine tumor measured as % treated/control calculated at 1310 mg/kg (po); type: functional
Mus musculus [26] = assay: In vivo activity tested against C3H mice bearing panc-03 murine tumor measured as body weight loss at 1310 mg/kg (po); type: functional
Mus musculus [27] = assay: In vivo activity tested against C3H mice bearing panc-03 murine tumor measured as log Kill value was based on tumors that grew at 1310 mg/kg (po); type: functional, organism-based; design: dose 1310 mg/kg
Mus musculus [28] = assay: In vivo activity tested against C3H mice bearing Mam 17/Adr murine tumor at a dose of 330 mg/kg, measured as activity rating; type: functional
Mus musculus [29] = assay: In vivo activity tested against C3H mice bearing panc-03 murine tumor at a dose of 330mg/kg, measured as % treated/control; type: functional
Mus musculus [30] = assay: In vivo activity tested against C3H mice bearing panc-03 murine tumor at a dose of 330mg/kg, measured as activity rating; type: functional
Mus musculus [31] = assay: In vivo activity tested against C3H mice bearing panc-03 murine tumor measured as % treated/control calculated at 1530 mg/kg (po); type: functional
Mus musculus [32] = assay: In vivo activity tested against C3H mice bearing panc-03 murine tumor measured as log Kill value was based on tumors that grew at 1530 mg/kg (po); type: functional, organism-based; design: dose 1530 mg/kg
Mus musculus [33] = assay: In vivo activity tested against C3H mice bearing panc-03 murine tumor measured as body weight loss at 1530 mg/kg (po); type: functional
Mus musculus [34] = assay: In vivo activity tested against C3H mice bearing panc-03 murine tumor measured as log Kill value was based on tumors that grew at 2300 mg/kg (po); type: functional, organism-based; design: dose 2300 mg/kg
Mus musculus [35] = assay: In vivo activity tested against C3H mice bearing panc-03 murine tumor measured as % treated/control calculated at 480 mg/kg (po); type: functional
Mus musculus [36] = assay: In vivo activity tested against C3H mice bearing panc-03 murine tumor measured as log Kill value was based on tumors that grew at 480 mg/kg (po); type: functional, organism-based; design: dose 480 mg/kg
Mus musculus [37] = assay: In vivo activity tested against C3H mice bearing panc-03 murine tumor measured as body weight loss at 2300 mg/kg (po); type: functional
Mus musculus [38] = assay: In vivo activity tested against C3H mice bearing panc-03 murine tumor measured as body weight loss at 480 mg/kg (po); type: functional
Mus musculus [39] = assay: In vivo activity tested against C3H mice bearing panc-03 murine tumor measured as % treated/control calculated at 2300 mg/kg (po); type: functional
Mus musculus [40] = assay: In vivo activity tested against C3H mice bearing panc-03 murine tumor measured as cures at 2300 mg/kg (po); 1/5 cures; type: functional
Mus musculus [41] = assay: In vivo activity tested against C3H mice bearing panc-03 murine tumor measured as % treated/control calculated at 351 mg/kg (po); type: functional
Mus musculus [42] = assay: In vivo activity tested against C3H mice bearing panc-03 murine tumor measured as log Kill value was based on tumors that grew at 351 mg/kg (po); type: functional, organism-based; design: dose 351 mg/kg
Mus musculus [43] = assay: In vivo activity tested against C3H mice bearing panc-03 murine tumor measured as % treated/control calculated at 287 mg/kg (po); type: functional
Mus musculus [44] = assay: In vivo activity tested against C3H mice bearing panc-03 murine tumor measured as body weight loss at 351 mg/kg (po); type: functional
Mus musculus [45] = assay: In vivo activity tested against C3H mice bearing panc-03 murine tumor measured as log Kill value was based on tumors that grew at 287 mg/kg (po); type: functional, organism-based; design: dose 287 mg/kg
Mus musculus [46] = assay: In vivo activity tested against C3H mice bearing panc-03 murine tumor measured as body weight loss at 287 mg/kg (po); type: functional

SMILES: COc1ccc2ncc(Oc3ccc(OC(C)C(=O)O)cc3)nc2c1Cl (stereo unspecified)
- Log kill (Mus musculus [1]): 0
- Body weight loss (Mus musculus [2]): 11.1%
- T/C (Mus musculus [3]): 76%

SMILES: CC(Oc1ccc(Oc2cnc3ccc(Br)cc3n2)cc1)C(=O)O (stereo unspecified)
- T/C (Mus musculus [4]): 0%
- Body weight loss (Mus musculus [5]): -7%
- Cures (Mus musculus [6]): 3
- Body weight loss (Mus musculus [7]): -12%
- Cures (Mus musculus [8]): 2
- Activity rating (Mus musculus [9]): 2.8
- Activity rating (Mus musculus [10]): >2.8
- T/C (Mus musculus [11]): 0%
- Log kill (Mus musculus [12]): 3
- Log kill (Mus musculus [13]): 2.1

SMILES: CC(Oc1ccc(Oc2cnc3cc(Cl)ccc3n2)cc1)C(=O)O (stereo unspecified) [QUIZALOFOP]
- T/C (Mus musculus [14]): >100%
- Activity rating (Mus musculus [15]): <0.7
- Log kill (Mus musculus [16]): inactive
- Body weight loss (Mus musculus [17]): -4%

SMILES: CC(Oc1ccc(Oc2cnc3ccc(I)cc3n2)cc1)C(=O)O (stereo unspecified)
- Log kill (Mus musculus [18]): 1.8
- Body weight loss (Mus musculus [19]): 0%
- T/C (Mus musculus [20]): 15%

SMILES: CC(Oc1ccc(Oc2cnc3ccc(Cl)cc3n2)cc1)C1N=NN=N1 (stereo unspecified)
- T/C (Mus musculus [21]): >100%
- Body weight loss (Mus musculus [22]): 8.7%
- Log kill (Mus musculus [23]): kill value was NIL
- Activity rating (Mus musculus [24]): <0.7

SMILES: CC(Oc1ccc(Oc2cnc3ccc([N+](=O)[O-])cc3n2)cc1)C(=O)O (stereo unspecified)
- T/C (Mus musculus [25]): 52%
- Body weight loss (Mus musculus [26]): -3.5%
- Log kill (Mus musculus [27]): 0.6

SMILES: CC(Sc1ccc(Oc2cnc3ccc(Cl)cc3n2)cc1)C(=O)O (stereo unspecified)
- Activity rating (Mus musculus [28]): >2.8
- T/C (Mus musculus [29]): 100%
- Activity rating (Mus musculus [30]): >2.8

SMILES: CC(Oc1ccc(Oc2cnc3ccc(Cl)cc3n2)cc1)C(=O)N(C)C (stereo unspecified)
- T/C (Mus musculus [31]): 16%
- Log kill (Mus musculus [32]): 2.2
- Body weight loss (Mus musculus [33]): -3.8%

SMILES: CNC(=O)C(C)Oc1ccc(Oc2cnc3ccc(Cl)cc3n2)cc1 (stereo unspecified)
- Log kill (Mus musculus [34]): 4.2
- T/C (Mus musculus [35]): 39%
- Log kill (Mus musculus [36]): 1.2
- Body weight loss (Mus musculus [37]): -14.5%
- Body weight loss (Mus musculus [38]): -9.3%
- T/C (Mus musculus [39]): 4%
- Cures (Mus musculus [40]): 1

SMILES: CC(Oc1ccc(Oc2cnc3cccc(Cl)c3n2)cc1)C(=O)O (stereo unspecified)
- T/C (Mus musculus [41]): 74%
- Log kill (Mus musculus [42]): 0
- T/C (Mus musculus [43]): 69%
- Body weight loss (Mus musculus [44]): -4%
- Log kill (Mus musculus [45]): 0.1
- Body weight loss (Mus musculus [46]): -3.9%

Reference: ChEMBL document CHEMBL1134487, “Design, synthesis, and biological evaluation of analogues of the antitumor agent, 2-(4-[(7-chloro-2-quinoxalinyl)oxy]phenoxy)propionic acid (XK469)” (2001)
